From patent US7824698B2, “Lyophilized formulations of Salinosporamide A” (Nereus Pharmaceuticals, Inc., priority 2007, dated 2010)
≈ marks a conversion by molar mass, not a printed value.

Legend:
[1] = Chemical stability of the API
[2] = Salinosporamide A in-situ phase solubility and stability in H2O-TBA; type: physicochemical; details: for HPLC Assay (% Purity): room temp.
Experimental: Salinosporamide A in-situ phase solubility and stability were determined in 10, 20 and 30% H2O-TBA (v/v) solutions. Salinosporamide A was prepared at 2 mg/mL in TBA as a stock solution. HPLC water was spiked into the Salinosporamide A solution aliquot to make up the equivalent 10, 20 and 30% H2O-TBA solutions at room temperature. Each drug solution was mixed and immediately filtered. The filtrate was collected as time zero sample and analyzed by HPLC at real time to avoid drug degradation. The filtrate was subsequently sampled and filtered at 4, 24 and 48 hr to monitor drug stability at ambient room temperature.

[3] = Solubility and stability in tert-butanol and Kollidon-TBA vehicles by HPLC; type: physicochemical
Experimental: Salinosporamide A solubility was determined in 100% tert-butanol (TBA) and in TBA containing 3% (w/v) Kollidon 12 PF and 3% (w/v) Kollidon 17 PF, respectively. Both Kollidons can dissolve in TBA at approximately 4% (w/v). 3% Kollidon can serve as the bulking agent to support a lyophilization preparation. Salinosporamide A was added and saturated in the vehicles at ambient room temperature overnight. Salinosporamide A solutions were filtered and analyzed by HPLC to determine the solubility.

Structure (SMILES): C[C@@]12OC(=O)[C@]1([C@@H](O)[C@@H]1C=CCCC1)NC(=O)[C@@H]2CCCl [Salinosporamide A]
- stability in aqueous solution ([1]; neutral and basic pH values): labile
- time API is stable ([1]; stored at −20° C. desiccated): at least 12 months
- bulk solution stability ([2]; 1 mg/mL in 10-30% H2O-TBA co-solvent systems, room temperature): stable
- HPLC Assay (% Purity) ([2]; 10% H2O-TBA, 0 hr): 100.0%
- HPLC Assay (% Purity) ([2]; 10% H2O-TBA, 4 hr): 99.5%
- HPLC Assay (% Purity) ([2]; 10% H2O-TBA, 24 hr): 99.8%
- HPLC Assay (% Purity) ([2]; 10% H2O-TBA, 48 hr): 99.7%
- HPLC Assay (% Purity) ([2]; 20% H2O-TBA, 0 hr): 100.0%
- HPLC Assay (% Purity) ([2]; 20% H2O-TBA, 4 hr): 99.8%
- HPLC Assay (% Purity) ([2]; 20% H2O-TBA, 24 hr): 99.8%
- HPLC Assay (% Purity) ([2]; 20% H2O-TBA, 48 hr): 99.7%
- HPLC Assay (% Purity) ([2]; 30% H2O-TBA, 0 hr): 100.0%
- HPLC Assay (% Purity) ([2]; 30% H2O-TBA, 4 hr): 99.8%
- HPLC Assay (% Purity) ([2]; 30% H2O-TBA, 24 hr): 99.5%
- HPLC Assay (% Purity) ([2]; 30% H2O-TBA, 48 hr): 99.3%
- solubility ([3]; 3% Kollidon 12 PF-TBA): 4.9 mg/mL (≈ 15.6 mM)
- stability in solution ([3]; 3% Kollidon 12 PF-TBA and 3% Kollidon 17 PF-TBA, room temperature overnight): stable
- solubility ([3]; 3% Kollidon 17 PF-TBA): 4.2 mg/mL (≈ 13.4 mM)
- solubility ([3]; 100% TBA, ambient room temperature): 2 mg/mL (≈ 6.37 mM)
- stability in solution ([3]; 100% TBA, ambient room temperature overnight): stable
